Laboratory results reported in US20220313698A1, “MODULATORS OF CYSTIC FIBROSIS TRANSMEMBRANE CONDUCTANCE REGULATOR” (Vertex Pharmaceuticals Incorporated, priority 2019, published 2022).

Columns and labels:
[1] = target: T1, CFTR-mediated chloride transport (Homo sapiens, UniProt P13569); experiment: Corrector Assay B - membrane potential dye assay (enteroid cells); details: for Corrector Assay B % activity: % of chloride transport of triple combination control (3 μM Compound A + 3 μM tezacaftor + 300 nM ivacaftor); for EC50: read-out: Corrector Assay B EC50, human intestinal enteroid cells, 18-24 h incubation, acute 10 μM forskolin + 300 nM ivacaftor;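 as to all read-outs here: methyl oxonol membrane potential fluorescence followed over 15 min after switching to chloride-free buffer with forskolin, 100 µM IBMX and ivacaftor, in presence of CaCC blockers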
Experimental: Base medium (ADF+++) consisted of Advanced DMEM/Ham's F12, 2 mM Glutamax, 10 mM HEPES, 1 μg/ml penicillin/streptomycin.
Intestinal enteroid maintenance medium (IEMM) consisted of ADF+++, 1×B27 supplement, 1×N2 supplement, 1.25 mM N-acetyl cysteine, 10 mM Nicotinamide, 50 ng/mL hEGF, 10 nM Gastrin, 1 μg/mL hR-spondin-1, 100 ng/mL hNoggin, TGF-b type 1 inhibitor A-83-01, 100 μg/mL Primocin, 10 μM P38 MAPK inhibitor SB202190.
Bath 1 Buffer consisted of 1 mM MgCl2, 160 mM NaCl, 4.5 mM KCl, 10 mM HEPES, 10 mM Glucose, 2 mM CaCl2).
Chloride Free Buffer consisted of 1 mM Magnesium Gluconate, 2 mM Calcium Gluconate, 4.5 mM Potassium Gluconate, 160 mM Sodium Gluconate, 10 mM HEPES, 10 mM Glucose.
Bath 1 Dye Solution consisted of Bath 1 Buffer, 0.04% Pluronic F127, 20 μM Methyl Oxonol, 30 μM CaCCinh-A01, 30 μM Chicago Sky Blue.
Chloride Free Dye Solution consisted of Chloride Free Buffer, 0.04% Pluronic F127, 20 μM Methyl Oxonol, 30 μM CaCCinh-A01, 30 μM Chicago Sky Blue.
Chloride Free Dye Stimulation Solution consisted of Chloride Free Dye Solution, 10 μM forskolin, 100 μM IBMX, and 300 nM Ivacaftor.
Cells were recovered in cell recovery solution, collected by centrifugation at 650 rpm for 5 min at 4° C., resuspended in TryPLE and incubated for 5 min at 37° C. Cells were then collected by centrifugation at 650 rpm for 5 min at 4° C. and resuspended in IEMM containing 10 μM ROCK inhibitor (RI). The cell suspension was passed through a 40 μm cell strainer and resuspended at 1×10^6 cells/mL in IEMM containing 10 μM RI. Cells were seeded at 5000 cells/well into multi-well plates and incubated for overnight at 37° C., 95% humidity and 5% CO2 prior to assay.
Briefly, cells were washed 5 times in Bath 1 Buffer. Bath 1 Dye Solution was added and the cells were incubated for 25 min at room temperature. Following dye incubation, cells were washed 3 times in Chloride Free Dye Solution. Chloride transport was initiated by addition of Chloride Free Dye Stimulation Solution and the fluorescence signal was read for 15 min. The CFTR-mediated chloride transport for each condition was determined from the AUC of the fluorescence response to acute forskolin and 300 nM N-[2,4-bis(1,1-dimethylethyl)-5-hydroxyphenyl]-1,4-dihydro-4-oxoquinoline-3-carboxamide stimulation. Chloride transport was then expressed as a percentage of the chloride transport following treatment with 3 μM Compound A, 3 μM (R)-1-(2,2-difluorobenzo[d][1,3]dioxol-5-yl)-N-(1-(2,3-dihydroxypropyl)-6-fluoro-2-(1-hydroxy-2-methylpropan-2-yl)-1H-indol-5-yl)cyclopropanecarboxamide and 300 nM acute N-[2,4-bis(1,1-dimethylethyl)-5-hydroxyphenyl]-1,4-dihydro-4-oxoquinoline-3-carboxamide triple combination control (% Activity).

[2] = target: T1, CFTR-mediated chloride transport; experiment: Corrector Assay A - membrane potential dye assay (enteroid cells); details: for Corrector Assay A % activity: % of chloride transport of triple combination control (1 μM (14S)-dispiro macrocycle + 3 μM tezacaftor + 300 nM ivacaftor); for EC50: read-out: Corrector Assay A EC50, human intestinal enteroid cells, 18-24 h incubation, acute 10 μM forskolin + 300 nM ivacaftor

Structure (SMILES) | Corrector Assay B % activity [1] | EC50 [1] [nM] | Corrector Assay A % activity [2] | EC50 [2] [nM]
CCCC1(C)CC2CCCNc3cccc(n3)S(=O)(=O)NC(=O)c3ccc(-n4ccc(OCCC5(C(F)(F)F)CC5)n4)nc3N1C2 (single isomer, unassigned) [Compound 368, 12-methyl-12-propyl-8-(3-{2-[1-(trifluoromethyl)cyclopropyl]ethoxy}-1H-pyrazol-1-yl)-2λ^6-thia-3,9,11,18,23-pentaazatetracyclo[17.3.1.111,14.05,10]tetracosa-1(22),5,7,9,19(23),20-hexaene-2,2,4-trione] | +++ (+++ is >60%) | < 1000 |  | 
CC(C)(C)c1ccc2c(n1)N1C[C@@H](CCC(c3ccc(C(=O)O)cc3)Nc3cccc(n3)S(=O)(=O)NC2=O)CC1(C)C (single isomer, unassigned) [Compound 291] | ++ (++ is 30-60%) | 1000 to 3000 |  | 
CC1(C)C[C@@H]2CCCN(CCC#N)c3cccc(n3)S(=O)(=O)NC(=O)c3ccc(-n4ccc(OCCC5(C(F)(F)F)CC5)n4)nc3N1C2 [Compound 377] | +++ (+++ is >60%) | < 1000 |  | 
CCCC1(C)CC2CCCNc3cccc(n3)S(=O)(=O)NC(=O)c3ccc(-n4ccc(OCCC5(C(F)(F)F)CC5)n4)nc3N1C2 (single isomer, unassigned) [Compound 366, 12-methyl-12-propyl-8-(3-{2-[1-(trifluoromethyl)cyclopropyl]ethoxy}-1H-pyrazol-1-yl)-2λ^6-thia-3,9,11,18,23-pentaazatetracyclo[17.3.1.111,14.05,10]tetracosa-1(22),5,7,9,19(23),20-hexaene-2,2,4-trione] | + (+ is <30%) |  |  | 
CN(C)C(=O)CN1CCC[C@@H]2CN(c3nc(-n4ccc(OCCC5(C(F)(F)F)CC5)n4)ccc3C(=O)NS(=O)(=O)c3cccc1n3)C(C)(C)C2 [Compound 376] | ++ (++ is 30-60%) | < 1000 |  | 
CC1(C)C[C@@H]2CCC(c3ccccc3)Nc3cccc(n3)S(=O)(=O)NC(=O)c3cccnc3N1C2 (single isomer, unassigned) [Compound 289] | +++ (+++ is >60%) | < 1000 |  | 
CC1(C)C[C@@H]2CCC(c3ccc(C(=O)O)cc3)Nc3cccc(n3)S(=O)(=O)NC(=O)c3ccc(-n4ccc(OCCC5(C(F)(F)F)CC5)n4)nc3N1C2 (single isomer, unassigned) [Compound 371] | +++ (+++ is >60%) | < 1000 |  | 
CC1(C)C[C@@H]2CCC(c3ccccc3)Nc3cccc(n3)S(=O)(=O)NC(=O)c3cccnc3N1C2 (single isomer, unassigned) [Compound 288] | +++ (+++ is >60%) | 1000 to 3000 |  | 
CC(C)C1CC[C@@H]2CN(c3nc(-n4ccc(OCCC5(C(F)(F)F)CC5)n4)ccc3C(=O)NS(=O)(=O)c3cccc(n3)N1)C(C)(C)C2 (single isomer, unassigned) [Compound 358] | +++ (+++ is >60%) | < 1000 |  | 
CC1(C)C[C@@H]2CCC(c3cncnc3)Nc3cccc(n3)S(=O)(=O)NC(=O)c3ccc(-n4ccc(OCCC5(C(F)(F)F)CC5)n4)nc3N1C2 (single isomer, unassigned) [Compound 375] | +++ (+++ is >60%) | < 1000 |  | 
CC1(C)C[C@@H]2CCCN(CCC(N)=O)c3cccc(n3)S(=O)(=O)NC(=O)c3ccc(-n4ccc(OCCC5(C(F)(F)F)CC5)n4)nc3N1C2 [Compound 378, 3-[(14S)-12,12-Dimethyl-2,2,4-trioxo-8-(3-{2-[1-(trifluoromethyl)cyclopropyl]ethoxy}-1H-pyrazol-1-yl)-2λ^6-thia-3,9,11,18,23-pentaazatetracyclo[17.3.1.111,14.05,10]tetracosa-1(23),5(10),6,8,19,21-hexaen-18-yl]propanamide] | +++ (+++ is >60%) | < 1000 |  | 
Cn1cnnc1CN1CCC[C@@H]2CN(c3nc(-n4ccc(OCCC5(C(F)(F)F)CC5)n4)ccc3C(=O)NS(=O)(=O)c3cccc1n3)C(C)(C)C2 [Compound 373] | ++ (++ is 30-60%) | < 1000 |  | 
CC1(C)CC2CC(c3ccccc3)CNc3cccc(n3)S(=O)(=O)NC(=O)c3ccc(-n4ccc(OCCC5(C(F)(F)F)CC5)n4)nc3N1C2 (single isomer, unassigned) [Compound 392, 12,12-dimethyl-16-phenyl-8-(3-{2-[1-(trifluoromethyl)cyclopropyl]ethoxy}-1H-pyrazol-1-yl)-2λ^6-thia-3,9,11,18,23-pentaazatetracyclo[17.3.1.111,14.05,10]tetracosa-1(22),5,7,9,19(23),20-hexaene-2,2,4-trione] | ++ (++ is 30-60%) | < 1000 |  | 
CC1(C)C[C@@H]2CCCN(C[C@@H](O)CO)c3cccc(n3)S(=O)(=O)NC(=O)c3ccc(-n4ccc(OCCC5(C(F)(F)F)CC5)n4)nc3N1C2 (single isomer, unassigned) [Compound 379] | +++ (+++ is >60%) | < 1000 |  | 
CC1(C)C[C@@H]2CCCN(CCCCCC#N)c3cccc(n3)S(=O)(=O)NC(=O)c3ccc(-n4ccc(OCCC5(C(F)(F)F)CC5)n4)nc3N1C2 [Compound 369] | ++ (++ is 30-60%) | < 1000 |  | 
CC(C)(C)c1ccc2c(n1)N1C[C@@H](CCC(c3ccc(C(=O)O)cc3)Nc3cccc(n3)S(=O)(=O)NC2=O)CC1(C)C (single isomer, unassigned) [Compound 290] | ++ (++ is 30-60%) | 1000 to 3000 |  | 
CC1(C)CC2CN1c1nc(-n3ccc(OCCC4(C(F)(F)F)CC4)n3)ccc1C(=O)NS(=O)(=O)c1cccc(n1)NCCC2c1ccccc1 (single isomer, unassigned) [Compound 386, 12,12-Dimethyl-15-phenyl-8-(3-{2-[1-(trifluoromethyl)cyclopropyl]ethoxy}-1H-pyrazol-1-yl)-2λ^6-thia-3,9,11,18,23-pentaazatetracyclo[17.3.1.111,14.05,10]tetracosa-1(22),5,7,9,19(23),20-hexaene-2,2,4-trione] | ++ (++ is 30-60%) | < 1000 |  | 
CCCC1(C)CC2CCCNc3cccc(n3)S(=O)(=O)NC(=O)c3ccc(-n4ccc(OCCC5(C(F)(F)F)CC5)n4)nc3N1C2 (single isomer, unassigned) [Compound 365, 12-methyl-12-propyl-8-(3-{2-[1-(trifluoromethyl)cyclopropyl]ethoxy}-1H-pyrazol-1-yl)-2λ^6-thia-3,9,11,18,23-pentaazatetracyclo[17.3.1.111,14.05,10]tetracosa-1(22),5,7,9,19(23),20-hexaene-2,2,4-trione] | + (+ is <30%) |  |  | 
CC(C)(C)c1ccc2c(n1)N1C[C@@H](CCC(c3cncnc3)Nc3cccc(n3)S(=O)(=O)NC2=O)CC1(C)C (single isomer, unassigned) [Compound 298] | +++ (+++ is >60%) | < 1000 |  | 
COC(=O)N1CCC(c2ccnc(C3CC[C@@H]4CN(c5nc(C(C)(C)C)ccc5C(=O)NS(=O)(=O)c5cccc(n5)N3)C(C)(C)C4)c2)CC1 (stereo partly drawn) [Compound 96, methyl 4-{2-[(14S)-8-tert-butyl-12,12-dimethyl-2,2,4-trioxo-2λ^6-thia-3,9,11,18,23-pentaazatetracyclo[17.3.1.111,14.05,10]tetracosa-1(23),5(10),6,8,19,21-hexaen-17-yl]pyridin-4-yl}piperidine-1-carboxylate] |  |  | +++ (+++ is >60%) | < 1000
CC1(C)C[C@@H]2CC[C@H](c3ccccn3)Nc3cccc(n3)S(=O)(=O)NC(=O)c3ccc(-c4cccc(OCCC5CC5)n4)nc3N1C2 [Compound 311] |  |  | +++ (+++ is >60%) | < 1000
CC(C)(C)c1ccc2c(n1)N1C[C@@H](CC[C@H](c3cccc(N4CCCCC4)n3)Nc3cccc(n3)S(=O)(=O)NC2=O)CC1(C)C [Compound 174] |  |  | +++ (+++ is >60%) | < 1000
CC(C)(C)c1ccc2c(n1)N1C[C@@H](CC[C@H](c3cccc(C4=CCOCC4)n3)Nc3cccc(n3)S(=O)(=O)NC2=O)CC1(C)C [Compound 150] |  |  | +++ (+++ is >60%) | < 1000
CC(C)(C)c1ccc2c(n1)N1C[C@@H](CCC(c3ccc(-c4cc[nH]n4)cn3)Nc3cccc(n3)S(=O)(=O)NC2=O)CC1(C)C (stereo partly shown) [Compound 129] |  |  | +++ (+++ is >60%) | < 1000
CN(C)CCNc1cccc([C@@H]2CC[C@@H]3CN(c4nc(C(C)(C)C)ccc4C(=O)NS(=O)(=O)c4cccc(n4)N2)C(C)(C)C3)n1 [Compound 188] |  |  | ++ (++ is 30-60%) | < 1000
CC(C)(C)c1ccc2c(n1)N1C[C@@H](CC[C@@H](c3cc(-c4cc[nH]n4)ccn3)Nc3cccc(n3)S(=O)(=O)NC2=O)CC1(C)C (single isomer, unassigned) [Compound 73] |  |  | +++ (+++ is >60%) | < 1000
CC(C)(C)c1ccc2c(n1)N1C[C@@H](CC[C@@H](C3CCOCC3)Nc3cccc(n3)S(=O)(=O)NC2=O)CC1(C)C (single isomer, unassigned) [Compound 268] |  |  | +++ (+++ is >60%) | < 1000
